How the values were obtained:
DU-145 = assay: NCI human tumor cell panel: DU-145 (Prostate Cancer); assay type: cell-based; settings: for GI50: DU-145, read-out: Log10 GI50 (converted); for IC (TGI): DU-145, read-out: Log10 TGI (converted)
NCI-H522 = assay: NCI human tumor cell panel: NCI-H522 (Non-Small Cell Lung Cancer); settings: for GI50: NCI-H522, read-out: Log10 GI50 (converted); for IC (TGI): NCI-H522, read-out: Log10 TGI
SK-MEL-5 = assay: NCI human tumor cell panel: SK-MEL-5 (Melanoma); assay type: cell-based; settings: for GI50: SK-MEL-5, read-out: Log10 GI50 (converted); for IC (TGI): SK-MEL-5, read-out: Log10 TGI (converted)
[1] = system: panel of sixty different human tumor cell lines; assay: NCI human tumor cell panel: whole panel (mean graph summary); settings: for GI50 / CC50: Homo sapiens; for GI50: read-out: Log10 GI50, MG_MID, mean over the panel (converted); for CC50: read-out: Log10 LC50, MG_MID, mean over the panel (converted); for Log10 TGI, MG_MID: mean over the panel; for Log10 TGI, Delta / Log10 TGI, Range: whole panel
NCI-H322M = assay: cells; assay type: cell-based; settings: Homo sapiens; for IC (TGI): read-out: Log10 TGI (converted)
SK-MEL-28 = assay: NCI human tumor cell panel: SK-MEL-28 (Melanoma); assay type: cell-based; settings: for GI50: SK-MEL-28, read-out: Log10 GI50 (converted); for IC (TGI): SK-MEL-28, read-out: Log10 TGI (converted)
OVCAR-3 = assay: NCI human tumor cell panel: OVCAR-3 (Ovarian Cancer); assay type: cell-based; settings: for GI50: OVCAR-3, read-out: Log10 GI50 (converted); for IC (TGI): OVCAR-3, read-out: Log10 TGI (converted)
RPMI-8226 = assay: NCI human tumor cell panel: RPMI-8226 (Leukemia); assay type: cell-based; settings: for GI50: RPMI-8226, read-out: Log10 GI50 (converted); for IC (TGI): RPMI-8226, read-out: Log10 TGI
SNB-19 = assay: NCI human tumor cell panel: SNB-19 (CNS Cancer); assay type: cell-based; settings: for GI50: SNB-19, read-out: Log10 GI50 (converted)
MCF7 = assay: NCI human tumor cell panel: MCF7 (Breast Cancer); assay type: cell-based; settings: for GI50: MCF7, read-out: Log10 GI50 (converted); for IC (TGI): MCF7, read-out: Log10 TGI (converted)
SF-539 = assay: NCI human tumor cell panel: SF-539 (CNS Cancer); assay type: cell-based; settings: for GI50: SF-539, read-out: Log10 GI50 (converted); for IC (TGI): SF-539, read-out: Log10 TGI (converted)
SK-OV-3 = assay: NCI human tumor cell panel: SK-OV-3 (Ovarian Cancer); assay type: cell-based; settings: for GI50: SK-OV-3, read-out: Log10 GI50 (converted); for IC (TGI): SK-OV-3, read-out: Log10 TGI (converted)
MDA-N = assay: NCI human tumor cell panel: MDA-N (Breast Cancer); assay type: cell-based; settings: for GI50: read-out: Log10 GI50 (converted); for IC (TGI): read-out: Log10 TGI (converted)
SK-MEL-2 = assay: NCI human tumor cell panel: SK-MEL-2 (Melanoma); assay type: cell-based; settings: for GI50: SK-MEL-2, read-out: Log10 GI50 (converted); for IC (TGI): SK-MEL-2, read-out: Log10 TGI (converted)
MDA-MB-435 = assay: NCI human tumor cell panel: MDA-MB-435 (Breast Cancer); assay type: cell-based; settings: for GI50: MDA-MB-435, read-out: Log10 GI50 (converted); for IC (TGI): MDA-MB-435, read-out: Log10 TGI (converted)
T-47D = assay: NCI human tumor cell panel: T-47D (Breast Cancer); assay type: cell-based; settings: T47D; for GI50: read-out: Log10 GI50 (converted); for IC (TGI): read-out: Log10 TGI (converted)
HCC-2998 = assay: NCI human tumor cell panel: HCC-2998 (Colon Cancer); assay type: cell-based; settings: for GI50: HCC-2998, read-out: Log10 GI50 (converted); for IC (TGI): HCC-2998, read-out: Log10 TGI (converted)
U251 = assay: NCI human tumor cell panel: U251 (CNS Cancer); assay type: cell-based; settings: for GI50: U-251, U251, read-out: Log10 GI50 (converted); for IC (TGI): U-251, U251, read-out: Log10 TGI (converted)
MDA-MB-231/ATCC = assay: NCI human tumor cell panel: MDA-MB-231/ATCC (Breast Cancer); assay type: cell-based; settings: Homo sapiens, MDA-MB-231, MDA-MB-231/ATCC; for GI50: read-out: Log10 GI50 (converted); for IC (TGI): read-out: Log10 TGI (converted)
M14 = assay: NCI human tumor cell panel: M14 (Melanoma); assay type: cell-based; settings: for GI50: M14, read-out: Log10 GI50 (converted); for IC (TGI): M14, read-out: Log10 TGI (converted)
UO-31 = assay: NCI human tumor cell panel: UO-31 (Renal Cancer); assay type: cell-based; settings: for GI50: UO-31, read-out: Log10 GI50 (converted); for IC (TGI): UO-31, read-out: Log10 TGI (converted)
COLO 205 = assay: NCI human tumor cell panel: COLO 205 (Colon Cancer); assay type: cell-based; settings: for GI50: COLO 205, read-out: Log10 GI50 (converted); for IC (TGI): COLO 205, read-out: Log10 TGI (converted)
CCRF-CEM = assay: NCI human tumor cell panel: CCRF-CEM (Leukemia); assay type: cell-based; settings: for GI50: read-out: Log10 GI50 (converted); for IC (TGI): read-out: Log10 TGI (converted)
CAKI-1 = assay: NCI human tumor cell panel: CAKI-1 (Renal Cancer); assay type: cell-based; settings: for GI50: CAKI-1, read-out: Log10 GI50 (converted); for IC (TGI): CAKI-1, read-out: Log10 TGI (converted)
NCI-H226 = assay: NCI human tumor cell panel: NCI-H226 (Non-Small Cell Lung Cancer); assay type: cell-based; settings: NCI-H226, read-out: Log10 GI50 (converted)

Q: For `OCc1ccc(-c2ccc(-c3ccc(CO)[se]3)s2)s1` [compound 688830], which GI50 (DU-145) is on record?
A: 22.9 µM

Q: And the IC (TGI) (DU-145)?
A: > 100 µM

Q: What about the GI50 (NCI-H522) of the same compound?
A: > 100 µM

Q: And the IC (TGI) (NCI-H522)?
A: > 100 µM

Q: And the GI50 (SK-MEL-5)?
A: 36.3 µM

Q: What about the IC (TGI) (SK-MEL-5) of the same compound?
A: > 100 µM

Q: What about the GI50 [1] of the same compound?
A: 2.29 µM

Q: What about the CC50 [1] of the same compound?
A: 69.2 µM

Q: What about the “Log10 TGI, MG_MID” value [1] of the same compound?
A: −4.62

Q: And the “Log10 TGI, Delta” value [1]?
A: 2.99

Q: And the “Log10 TGI, Range” value [1]?
A: 3.61

Q: And the IC (TGI) (NCI-H322M)?
A: 20 µM

Q: And the GI50 (SK-MEL-28)?
A: > 100 µM

Q: And the IC (TGI) (SK-MEL-28)?
A: > 100 µM

Q: What about the GI50 (OVCAR-3) of the same compound?
A: < 0.01 µM

Q: And the IC (TGI) (OVCAR-3)?
A: 0.0562 µM

Q: And the GI50 (RPMI-8226)?
A: 37.2 µM

Q: And the IC (TGI) (RPMI-8226)?
A: > 100 µM

Q: What about the GI50 (SNB-19) of the same compound?
A: 33.9 µM

Q: And the IC (TGI) (SNB-19; SNB-19, read-out: Log10 TGI (converted))?
A: 87.1 µM

Q: And the GI50 (MCF7)?
A: 0.0166 µM

Q: And the IC (TGI) (MCF7)?
A: > 100 µM

Q: What about the GI50 (SF-539) of the same compound?
A: 15.5 µM

Q: What about the IC (TGI) (SF-539) of the same compound?
A: 36.3 µM

Q: What about the GI50 (SK-OV-3) of the same compound?
A: 3.24 µM

Q: And the IC (TGI) (SK-OV-3)?
A: 19.5 µM

Q: What about the GI50 (MDA-N) of the same compound?
A: 97.7 µM

Q: And the IC (TGI) (MDA-N)?
A: > 100 µM

Q: What about the GI50 (SK-MEL-2) of the same compound?
A: 39.8 µM

Q: And the IC (TGI) (SK-MEL-2)?
A: > 100 µM

Q: What about the GI50 (MDA-MB-435) of the same compound?
A: > 100 µM

Q: What about the IC (TGI) (MDA-MB-435) of the same compound?
A: > 100 µM

Q: What about the GI50 (T-47D) of the same compound?
A: 0.288 µM

Q: And the IC (TGI) (T-47D)?
A: 57.5 µM

Q: And the GI50 (HCC-2998)?
A: 0.0631 µM

Q: And the IC (TGI) (HCC-2998)?
A: 11.5 µM

Q: And the GI50 (U251)?
A: 0.0832 µM

Q: What about the IC (TGI) (U251) of the same compound?
A: 20.9 µM

Q: What about the GI50 (MDA-MB-231/ATCC) of the same compound?
A: 12.6 µM

Q: And the IC (TGI) (MDA-MB-231/ATCC)?
A: 35.5 µM

Q: What about the GI50 (M14) of the same compound?
A: 37.2 µM

Q: What about the IC (TGI) (M14) of the same compound?
A: > 100 µM

Q: And the GI50 (UO-31)?
A: > 100 µM

Q: What about the IC (TGI) (UO-31) of the same compound?
A: > 100 µM

Q: What about the GI50 (COLO 205) of the same compound?
A: 0.447 µM

Q: And the IC (TGI) (COLO 205)?
A: 5.5 µM

Q: And the GI50 (CCRF-CEM)?
A: 25.7 µM

Q: And the IC (TGI) (CCRF-CEM)?
A: > 100 µM

Q: And the GI50 (CAKI-1)?
A: < 0.01 µM

Q: And the IC (TGI) (CAKI-1)?
A: 0.0282 µM

Q: What does the source list for `O=Cc1ccc(-c2ccc(-c3ccc(C=O)[se]3)s2)s1` [compound 688829]?
A: GI50 (DU-145): > 100 µM; IC (TGI) (DU-145): > 100 µM; GI50 (NCI-H522): 11.2 µM; IC (TGI) (NCI-H522): 39.8 µM; GI50 (SK-MEL-5): 23.4 µM; IC (TGI) (SK-MEL-5): > 100 µM; GI50 [1]: 5.37 µM; CC50 [1]: 87.1 µM; Log10 TGI, MG_MID [1]: −4.35; Log10 TGI, Delta [1]: 2.75; Log10 TGI, Range [1]: 3.10; GI50 (NCI-H322M; read-out: Log10 GI50 (converted)): 27.5 µM; IC (TGI) (NCI-H322M): 89.1 µM; GI50 (SK-MEL-28): 66.1 µM; IC (TGI) (SK-MEL-28): > 100 µM; GI50 (OVCAR-3): 0.129 µM; IC (TGI) (OVCAR-3): 0.631 µM; GI50 (RPMI-8226): 38.9 µM; IC (TGI) (RPMI-8226): > 100 µM; GI50 (SNB-19): > 100 µM; GI50 (MCF7): 0.191 µM; IC (TGI) (MCF7): > 100 µM; GI50 (SF-539): 27.5 µM; IC (TGI) (SF-539): > 100 µM; GI50 (SK-OV-3): 26.3 µM; IC (TGI) (SK-OV-3): > 100 µM; GI50 (MDA-N): 20.9 µM; IC (TGI) (MDA-N): > 100 µM; GI50 (SK-MEL-2): 33.9 µM; IC (TGI) (SK-MEL-2): > 100 µM; GI50 (MDA-MB-435): 33.1 µM; IC (TGI) (MDA-MB-435): > 100 µM; GI50 (T-47D): 0.339 µM; IC (TGI) (T-47D): > 100 µM; GI50 (HCC-2998): 0.389 µM; IC (TGI) (HCC-2998): > 100 µM; GI50 (U251): 0.245 µM; IC (TGI) (U251): 25.7 µM; GI50 (NCI-H226): 0.891 µM; GI50 (MDA-MB-231/ATCC): 23.4 µM; IC (TGI) (MDA-MB-231/ATCC): 67.6 µM; GI50 (M14): 20 µM; IC (TGI) (M14): > 100 µM; GI50 (UO-31): > 100 µM; IC (TGI) (UO-31): > 100 µM; GI50 (COLO 205): 12 µM; IC (TGI) (COLO 205): 33.1 µM; GI50 (CCRF-CEM): 7.94 µM; IC (TGI) (CCRF-CEM): > 100 µM; GI50 (CAKI-1): 0.191 µM; IC (TGI) (CAKI-1): 0.501 µM

Source: patent US20040063662A1, “Selenophene anti-tumor agents” (priority 1996, published 2004)
